Data set [1] deals with PCSK9 protein (Homo sapiens (Human), UniProt Q8NBP7). Description: Binding experiment: surface plasmon resonance (SPR) binding to PCSK9 protein. From the text:
• 1. Experimental objective: To detect the action of compounds to bind PCSK9 protein by a conventional surface plasmon resonance (SPR) method.

The target in data set [2] is PCSK9 secreted by HepG2 cells (Homo sapiens (Human), UniProt Q8NBP7). As to the kind of experiment: Effect on the concentration of PCSK9 secreted by HepG2 cells (ELISA). In kind it is cell-based. Particulars: 48 hours incubation, read-out: Inhibitory activity on PCSK9, IC50. From the text:
• 1. Experimental objective: To detect the inhibitory effect of the compounds on PCSK9. • 2. Experimental instruments and reagents: • 2.1 Instruments:
• CircuLex Human PCSK9 ELISA kit (MBL: CY-8079); • DMEM (Gibco: 31966-021) • FBS (Sigma: S5394) • Compound plate (Thermo: 1353506) • Complete culture medium: DMEM+10% FBS+1×P/S; • Experimental culture medium: DMEM+10% FBS • Cell strain: HepG2 (ATCC: HB-8065)
A self-adhesive seal was applied, the plate was placed on a plate shaker at room temperature, gently shaken, uniformly mixed, and incubated for 1 hour. • 11) The plate was placed on the plate washer, the washing liquid was set to 350 μL per well, and the plate was washed 4 times repeatedly. • 12) 100 μL/well of an HRP-conjugated detection antibody was added, a self-adhesive seal was applied, and the plate was placed on the plate shaker, well mixed uniformly, and incubated for 1 hour. • 13) The plate was placed on the plate washer, the washing liquid was set to 350 μL per well, and the plate was washed 4 times repeatedly. • 14) 100 μL/well of Substrate reagent was added, and the plate was placed in the dark, applied with a self-adhesive seal, placed on the plate shaker, well mixed uniformly, and incubated for 10-20 minutes. • 15) 100 μL/well of Stop solution (1N H2SO4) was added and mixed uniformly. • 16) The optical density (OD) value in each well was measured in sequence at a wavelength of 450 nm by the microplate reader. Detection was carried out within 30 min after the reaction was stopped.
After the OD values were read by the microplate reader, the OD value of the 0-concentration standard in the standard group was subtracted from the OD values of the standards, control group, and samples to obtain the actual OD values for these wells. A standard curve was plotted with Graphpad and the concentration of the sample was calculated. If the dilution was performed during the sample detection, the calculated sample concentration was necessarily multiplied by the corresponding dilution ratio in the final calculation, which was the actual concentration of the sample. Inhibition rate=(actual concentration in control-actual concentration in sample)/actual concentration in control*100. According to the inhibition rates corresponding to the different concentrations, IC50 was derived by Graphpad.
In general terms: An ELISA detects its analyte on a solid surface through an enzyme-linked reagent.

Data set [3] is described as follows: Pharmacokinetic determination in mice (plasma). In kind it is in vivo, C57BL/6J mice. Particulars: C57 mice, PO administration, 5 mpk; for AUC(0-inf) / half-life / MRT / Cmax: male, C57BL/6J, mouse, 5 mg/kg; for AUC(0-inf): read-out: Area under the curve AUC0-∞; for half-life: read-out: Half-life t1/2 (converted); for MRT: read-out: Mean residence time MRT; for Cmax: read-out: Plasma concentration Cmax. On the procedure:
C57BL/6J mice were used as test animals to study the pharmacokinetic behavior of the compounds of the present disclosure in mice (plasma) after oral and intravenous administration.
C57 mice, male, purchased from Shanghai Bk Lab Animal Co., Ltd., with animal production license number (SCXK (Shanghai) 2013-0006 NO.311620400001794).
• Preparation of oral drug: 10% Solutol HS15
10 g of Solutol HS15 solid was weighed, dissolved in 90 mL of pure water, uniformly mixed, stirred, and ultrasonically treated to form a clear solution.
The compound of the present disclosure was weighed and dissolved in this solution, uniformly shaken, and ultrasonically treated for 15 minutes to obtain a colorless clear solution with a concentration of 0.5 mg/mL. • Preparation of intravenous drug: 5% DMSO+10% Solutol HS15+85% PBS […]
3 male C57 mice were fasted overnight and then respectively administered PO at a dose of 5 mg/kg and a volume of 10 mL/kg. […]
Before and after administration of mice, 0.04 mL of blood was collected from the orbit at 0.083 (iv), 0.25, 0.5, 1, 2, 4, 8, and 24 hours, and placed in EDTA-K2 test tubes, which was centrifuged at 6000 rpm at 4° C. for 6 min to separate plasma which was stored at −80° C.; and the […] were fed 4 h after administration.
The final determination results were obtained by using an LCMS/MS method.
The main pharmacokinetic parameters were calculated using WinNonlin 6.1.

PCSK9 protein, sequence (Q8NBP7 153-692): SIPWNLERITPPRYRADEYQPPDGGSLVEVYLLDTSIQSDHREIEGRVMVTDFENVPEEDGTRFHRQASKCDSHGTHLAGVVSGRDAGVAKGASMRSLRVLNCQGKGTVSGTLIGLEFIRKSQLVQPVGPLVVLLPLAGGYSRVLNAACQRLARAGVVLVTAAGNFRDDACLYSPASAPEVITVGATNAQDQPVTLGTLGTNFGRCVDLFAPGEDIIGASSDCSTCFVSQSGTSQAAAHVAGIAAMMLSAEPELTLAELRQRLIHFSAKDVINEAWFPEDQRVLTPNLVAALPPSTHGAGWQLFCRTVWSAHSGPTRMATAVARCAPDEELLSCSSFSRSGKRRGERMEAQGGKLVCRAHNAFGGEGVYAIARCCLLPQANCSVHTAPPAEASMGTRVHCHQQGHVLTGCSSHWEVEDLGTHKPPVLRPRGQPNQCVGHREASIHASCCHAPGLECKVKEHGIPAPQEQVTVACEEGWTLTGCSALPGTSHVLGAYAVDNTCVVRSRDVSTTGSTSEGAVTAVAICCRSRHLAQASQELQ
PCSK9 secreted by HepG2 cells, sequence (Q8NBP7 153-692): as above
PCSK9 secreted by HepG2 cells, sequence (Q8NBP7 31-152 partner): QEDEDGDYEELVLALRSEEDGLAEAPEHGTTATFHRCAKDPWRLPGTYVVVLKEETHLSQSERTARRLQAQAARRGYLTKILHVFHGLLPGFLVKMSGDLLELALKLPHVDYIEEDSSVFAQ

A word on the Kd: it is a measure of binding affinity in units of concentration. Read a low Kd as higher affinity. In data set [1], `CC1(C)c2cccnc2C(=O)N1c1ccc(N[C@H]2CC[C@H](Nc3ncc(OC(F)F)cn3)C2)nc1` [Example 93, 6-(6-(((1S,3S)-3-((5-(difluoromethoxy)pyrimidin-2-yl)amino)cyclopentyl)amino)pyridin-3-yl)-5,5-dimethyl-5,6-dihydro-7H-pyrrolo[3,4-b]pyridin-7-one] registered a Kd of 2.9 nM. That is a single-digit nanomolar value.

Consider `O=c1ccccn1-c1ccc(N[C@H]2CC[C@H](Nc3nc4cc(Cl)ccn4n3)C2)nc1` [Example 112, 6′-(((1S,3S)-3-((7-chloro-[1,2,4]triazolo[1,5-a]pyridin-2-yl)amino)cyclopentyl)amino)-2H-[1,3′-bipyridinyl]-2-one], for which, in data set [1], binding was characterised by a dissociation constant (Kd) of 2.7 nM. The Kd values of the last two molecules are within 1.5-fold of each other.

One may read the IC50 as the point on the concentration scale where inhibition reaches its midpoint. Molecule `O=c1ccccn1-c1ccc(N[C@H]2CC[C@H](Nc3nc4cc(C(F)(F)F)ccn4n3)C2)nc1` [Example 113, 6′-(((1S,3S)-3-((7-(trifluoromethyl)-[1,2,4]triazolo[1,5-a]pyridin-2-yl)amino)cyclopentyl)amino)-2H-[1,3′-bipyridinyl]-2-one] returned a Kd in data set [1] of 4.2 nM. In data set [2], the half-maximal inhibitory concentration (IC50) was found to be 14000 nM.

Broadly, the MRT is a mean duration of stay, worked out from the concentration-time curve. On to `Cc1cc2c(cn1)CN(c1ccc(N[C@H]3CC[C@H](Nc4ncc(OC(F)F)cn4)C3)nc1)C2=O` [Example 116, 2-(6-(((1S,3S)-3-((5-(difluoromethoxy)pyrimidin-2-yl)amino)cyclopentyl)amino)-3-yl)-6-methyl-2,3-dihydro-1H-pyrrolo[3,4-c]pyridin-1-one], for which, in data set [3], the Time to peak tmax turned out to be 1 h, the AUC(0-inf) was determined as 42500 ng·h/mL, the half-life is 5.1 h and the MRT is 7.2 h. The Cmax in data set [3] was 4060 ng/mL. In addition, the concentration for half-maximal inhibition (IC50) in data set [2] was found to be 2600 nM.

In data set [1], `O=C1c2cccnc2CN1c1ccc(N[C@H]2CC[C@H](Nc3ncc(OCC(F)(F)F)cn3)C2)nc1` [Example 124] showed a dissociation constant (Kd) of 0.8 nM. Besides, in data set [2], the IC50 amounted to 16800 nM.

For the molecule `O=C1c2ncccc2CN1c1ccc(N[C@H]2CC[C@H](Nc3ncc(OCC(F)(F)F)cn3)C2)nc1` [Example 125], in data set [3], the “Area under the curve AUC0-∞” value was 24298 ng·h/mL, the “Half-life t1/2” value is reported as 7.7 h, the “Mean residence time MRT” value came to 4.0 h and the “Plasma concentration Cmax” value stood at 8545 ng/mL. The molecule also had a Time to peak tmax in data set [3] of 1 h. Besides, the IC50 in data set [2] was 17300 nM.

Turning to `O=C1c2ncccc2CN1c1ccc(N[C@H]2CC[C@H](Nc3ncc(C4CC4)nn3)C2)nc1` [Example 126, 6-(6-(((1S,3S)-3-((6-cyclopropyl-1,2,4-triazin-3-yl)amino)cyclopentyl)amino)pyridin-3-yl)-5,6-dihydro-7H-pyrrolo[3,4-b]pyridin-7-one], in data set [1], the Kd is 1.2 nM. The IC50 in data set [2] is 500 nM.

`O=C1c2ncccc2CN1c1ccc(N[C@H]2CC[C@H](Nc3ncc(C4CC4)cn3)C2)nc1` [Example 127]: the Kd in data set [1] was found to be 1.8 nM. Also, the IC50 in data set [2] is 11800 nM.

For the molecule `O=C1c2cccnc2CN1c1ccc(N[C@H]2CC[C@H](Nc3ncc(C4CC4)cn3)C2)nc1` [Example 128], in data set [3], the “Area under the curve AUC0-∞” value was 10873 ng·h/mL, the “Half-life t1/2” value was found to be 4.0 h, the “Mean residence time MRT” value is 3.7 h and the “Plasma concentration Cmax” value was determined as 4307 ng/mL. In data set [3], this molecule gave a Time to peak tmax of 0.5 h. The IC50 in data set [2] came to 7900 nM.

Take `Cc1ccn2nc(N[C@H]3CC[C@H](Nc4ccc(N5Cc6cccnc6C5=O)cn4)C3)nc2c1` [Example 130, 6-(6-(((1S,3S)-3-((7-methyl-[1,2,4]triazolo[1,5-a]pyridin-2-yl)amino)cyclopentyl)amino)pyridin-3-yl)-5,6-dihydro-7H-pyrrolo[3,4-b]pyridin-7-one]: in data set [1], the Kd is 1.2 nM. Moreover, the half-maximal inhibitory concentration (IC50) in data set [2] was determined as 9900 nM.

For `O=C1c2ncncc2CN1c1ccc(N[C@H]2CC[C@H](Nc3ncc(OC(F)F)cn3)C2)nc1` [Example 132, 6-(6-(((1S,3S)-3-((5-(difluoromethoxy)pyrimidin-2-yl)amino)cyclopentyl)amino)pyridin-3-yl)-5,6-dihydro-7H-pyrrolo[3,4-d]pyrimidin-7-one], binding in data set [1] was put at a Kd of 1.1 nM. Besides, the IC50 in data set [2] came to 12000 nM.

Take `O=C1c2cccnc2CN1c1ccc(N[C@H]2CC[C@H](Nc3ncc(C(F)(F)F)cn3)C2)nc1` [Example 133, 6-(6-(((1S,3S)-3-((5-(trifluoromethyl)pyrimidin-2-yl)amino)cyclopentyl)amino)-3-yl)-6,7-dihydro-5H-pyrrolo[3,4-b]pyridin-5-one]: in data set [3], the Time to peak tmax is 0.25 h, the AUC(0-inf) turned out to be 36800 ng·h/mL, the half-life is 6.7 h and the MRT was found to be 6.2 h. In data set [3], the Cmax was found to be 7530 ng/mL. Further, the IC50 in data set [2] was 1100 nM.

For the molecule `O=c1ccccn1-c1ccc(N[C@H]2CC[C@H](Nc3nc4cc(C5CC5)ccn4n3)C2)nc1` [Example 135, 6′-(((1S,3S)-3-((7-cyclopropyl-[1,2,4]triazolo[1,5-a]pyridin-2-yl)amino)cyclopentyl)amino)-2H-[1,3′-bipyridinyl]-2-one], the Kd in data set [1] was found to be 4.9 nM. The half-inhibitory concentration (IC50) in data set [2] is 22300 nM.

`O=C1c2ncccc2CN1c1ccc(N[C@H]2CC[C@H](Nc3ncc(OC(F)(F)F)cn3)C2)nc1` [Example 142, 6-(6-(((1S,3S)-3-((5-(trifluoromethoxy)pyrimidin-2-yl)amino)cyclopentyl)amino)pyridin-3-yl)-5,6-dihydro-7H-pyrrolo[3,4-b]pyridin-7-one]: in data set [3], the Time to peak tmax amounted to 2 h, the AUC(0-inf) was 50800 ng·h/mL, the half-life was 6.5 h and the MRT was 8.1 h. For the same molecule, the Cmax in data set [3] came out at 5930 ng/mL. In addition, the IC50 in data set [2] turned out to be 2400 nM.

For the molecule `CC1(C)c2cccnc2C(=O)N1c1ccc(N[C@H]2CC[C@H](Nc3ncc(C(F)(F)F)nn3)C2)nc1` [Example 146, 5,5-Dimethyl-6-(6-(((1S,3S)-3-((6-(trifluoromethyl)-1,2,4-triazin-3-yl)amino)cyclopentyl)amino)pyridin-3-yl)-5,6-dihydro-7H-pyrrolo[3,4-b]pyridin-7-one], in data set [1], the Kd was 2.5 nM.

Consider `O=C1c2cc(C(F)(F)F)ncc2CN1c1ccc(N[C@H]2CC[C@H](Nc3ncc(C(F)(F)F)nn3)C2)nc1` [Example 152, 6-(Trifluoromethyl)-2-(6-(((1S,3S)-3-((6-(trifluoromethyl)-1,2,4-triazin-3-yl)amino)cyclopentyl)amino)pyridin-3-yl)-2,3-dihydro-1H-pyrrolo[3,4-c]pyridin-1-one], for which, in data set [3], the Time to peak tmax was found to be 2 h, the AUC(0-inf) worked out at 65500 ng·h/mL, the half-life was 9.6 h and the MRT turned out to be 12.1 h. The Cmax in data set [3] was found to be 5290 ng/mL. The half-maximal inhibitory concentration (IC50) in data set [2] amounted to 1500 nM.

Take `O=C1c2ncc(F)cc2CN1c1ccc(N[C@H]2CC[C@H](Nc3ncc(C(F)(F)F)nn3)C2)nc1` [Example 153, 3-Fluoro-6-(6-(((1S,3S)-3-((6-(trifluoromethyl)-1,2,4-triazin-3-yl)amino)cyclopentyl)amino)pyridin-3-yl)-5,6-dihydro-7H-pyrrolo[3,4-b]pyridin-7-one]: in data set [3], the Time to peak tmax was 2 h, the AUC(0-inf) turned out to be 34600 ng·h/mL, the half-life is 2.9 h and the MRT turned out to be 4.4 h. The Cmax in data set [3] worked out at 6310 ng/mL. The IC50 in data set [2] was 26400 nM.
